Values of other authors, collected in PMC7449217, “The FDA-Approved Drug Nelfinavir Inhibits Lytic Cell-Free but Not Cell-Associated Nonlytic Transmission of Human Adenovirus” (Antimicrobial Agents and Chemotherapy, 2020).
Read-outs that look alike come from different tables or passages of the source.

Key:
A549 cells = details: cited from earlier work
HAdV-C2-dE3B-GFP = tested on: HAdV-C2-dE3B-GFP; set-up: method as in earlier work; details: A549, 1.25 μM compound, normalized to neg. ctr., cited from earlier work

| Compound | Toxic (A549 cells) | Normalized mean read-outs: Infected nuclei (HAdV-C2-dE3B-GFP; analysis EPFL) | Normalized mean read-outs: Infection index (HAdV-C2-dE3B-GFP; analysis EPFL) | Normalized mean read-outs: Nuclei (HAdV-C2-dE3B-GFP; analysis EPFL) | Normalized mean read-outs: Plaques (HAdV-C2-dE3B-GFP; analysis EPFL) | Normalized mean read-outs: Virus intensity (HAdV-C2-dE3B-GFP; analysis EPFL) | Normalized mean read-outs: Infected nuclei (HAdV-C2-dE3B-GFP; analysis UZH) | Normalized mean read-outs: Infection index (HAdV-C2-dE3B-GFP; analysis UZH) | Normalized mean read-outs: Nuclei (HAdV-C2-dE3B-GFP; analysis UZH) | Normalized mean read-outs: Plaques (HAdV-C2-dE3B-GFP; analysis UZH) | Normalized mean read-outs: Virus intensity (HAdV-C2-dE3B-GFP; analysis UZH) |
| --- | --- | --- | --- | --- | --- | --- | --- | --- | --- | --- | --- |
| Cc1cn([C@H]2C[C@H](F)[C@@H](CO)O2)c(=O)[nH]c1=O [3'-deoxy-3'-fluorothymidine] | no | 0.12 | 0.17 | 0.70 | 0.00148 | 0.32 AU | 0.13 | 0.15 | 0.83 | 0.00429 | 0.30 AU |
| Nc1c2ccccc2nc2ccccc12 [Aminacrine] | no | 0.60 | 0.42 | 1.42 | 0.67 | 0.51 AU | 0.53 | 0.62 | 0.87 | 0.75 | 0.50 AU |
| Cc1cc(N)c2ccccc2[n+]1CCCCCCCCCC[n+]1c(C)cc(N)c2ccccc21 [Dequalinium dichloride] | yes | 0.33 | 0.46 | 0.71 | 0.44 | 0.38 AU | 0.49 | 0.62 | 0.79 | 0.51 | 0.37 AU |
| CCCCCCCCCCCCCCCC[N+](C)(C)CCN(Cc1ccc(OC)cc1)c1ncccn1 [Thonzonium bromide] | – | 0.45 | 0.56 | 0.81 | 0.56 | 0.50 AU | 0.54 | 0.63 | 0.84 | 0.54 | 0.49 AU |
